Patent US8268815B2, “Pyrimidine compounds and use thereof” (Abbott GmbH & Co. KG, priority 2004, dated 2012)

Key:
[1] = biological target: T1, human dopamine D2L receptors (long isoform) (Homo sapiens, UniProt P14416); test: Dopamine D2L receptor binding, displacement of [125I]-iodospiperone; details: ratio Ki(D2L)/Ki(D3); HEK-293 membranes
T1 construct: expressed in transfected cells
Procedure: (§1) The substance to be tested was dissolved either in methanol/Chremophor® (BASF-AG) or in dimethyl sulfoxide and then diluted with water to the desired concentration.
II. Dopamine D2L Receptor:
(§2) Triplicate mixtures were carried out.
The incubation buffer comprised 50 mM Tris, 120 mM NaCl, 5 mM KCl, 2 mM CaCl2, 2 mM MgCl2 and 0.1% bovine serum albumin. The buffer was adjusted to pH 7.4 with HCl.
(§3) III. Measurement and Evaluation:
(§4) After incubation at 25° C. for 60 minutes, the mixtures were filtered under vacuum through Whatman GF/B glass fiber filters using a cell harvester. The filters were transferred by a filter transfer system into scintillation vials. After addition of 4 ml of Ultima Gold® (Packard), the samples were shaken for one hour and then the radioactivity was counted in a beta counter (Packard, Tricarb 2000 or 2200CA). The cp values were converted into dpm by means of a standard quench series with the aid of the instrument's own program.
(§5) Evaluation of the inhibition plots took place by iterative nonlinear regression analysis using the Statistical Analysis System (SAS) similar to the “LIGAND” program described by Munson and Rodbard.

[2] = biological target: T2, human dopamine D3 receptors (Homo sapiens, UniProt P35462); test: Dopamine D3 receptor binding, displacement of [125I]-iodosulpiride; details: membranes from HEK-293 cells with stably expressed human D3 receptors, 0.1 nM [125I]-iodosulpiride
T2 construct: expressed in transfected cells
T2 sequence (P35462 whole entry): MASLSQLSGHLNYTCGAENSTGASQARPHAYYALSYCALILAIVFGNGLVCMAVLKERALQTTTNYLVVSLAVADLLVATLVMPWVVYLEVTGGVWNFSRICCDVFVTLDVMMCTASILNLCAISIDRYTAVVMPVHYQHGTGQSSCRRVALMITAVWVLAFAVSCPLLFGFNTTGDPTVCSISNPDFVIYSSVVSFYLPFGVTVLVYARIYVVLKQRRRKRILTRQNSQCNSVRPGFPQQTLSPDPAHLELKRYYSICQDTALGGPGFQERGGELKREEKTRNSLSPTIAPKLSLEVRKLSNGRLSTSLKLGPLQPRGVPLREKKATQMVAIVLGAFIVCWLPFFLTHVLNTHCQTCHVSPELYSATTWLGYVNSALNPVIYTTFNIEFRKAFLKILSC
Procedure: as §1, §2
The incubation buffer comprised 50 mM Tris, 120 mM NaCl, 5 mM KCl, 2 mM CaCl2, 2 mM MgCl2 and 0.1% bovine serum albumin, 10 μM quinolone, 0.1% ascorbic acid (prepared fresh each day). The buffer was adjusted to pH 7.4 with HCl.
as §3, §4, §5

T1 sequence (P14416 whole entry, canonical isoform): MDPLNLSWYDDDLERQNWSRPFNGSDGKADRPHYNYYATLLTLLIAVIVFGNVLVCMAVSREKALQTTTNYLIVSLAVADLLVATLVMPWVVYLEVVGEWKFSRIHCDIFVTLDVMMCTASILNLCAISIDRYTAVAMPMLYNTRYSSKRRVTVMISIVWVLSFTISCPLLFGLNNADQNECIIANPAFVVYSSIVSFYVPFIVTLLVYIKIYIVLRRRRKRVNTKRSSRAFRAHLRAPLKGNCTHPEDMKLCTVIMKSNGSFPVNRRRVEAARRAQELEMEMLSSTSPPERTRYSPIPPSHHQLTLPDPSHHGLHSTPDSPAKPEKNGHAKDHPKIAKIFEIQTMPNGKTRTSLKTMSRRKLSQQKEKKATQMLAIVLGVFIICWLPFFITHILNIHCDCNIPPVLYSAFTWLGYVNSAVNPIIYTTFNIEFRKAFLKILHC

SMILES | Selectivity vs. D2L (Ki(D2L)/Ki(D3)) [1] | Ki [2]
CCCc1cc(N2CCN(CCCCN3C(=O)CCc4c(OC)cccc43)CC2)nc(C(C)(C)C)n1 [Example 33, 1-{4-[4-(2-tert-Butyl-6-propylpyrimidin-4-yl)piperazin-1-yl]butyl}-5-methoxy-3,4-dihydroquinolin-2(1H)-one] | 65 | 1.71 nM
CC(C)(C)c1nc(C(F)F)cc(N2CCN(CCCCN3C(=O)CCc4c(O)cccc43)CC2)n1 [Example 36, 1-(4-{4-[2-tert-Butyl-6-(difluoromethyl)pyrimidin-4-yl]piperazin-1-yl}butyl)-5-hydroxy-3,4-dihydroquinolin-2(1H)-one] | 41 | 1.18 nM
CC(C)(C)c1nc(N2CCN(CCCN3C(=O)COc4ccccc43)CC2)cc(C(F)(F)F)n1 [Example 2, 4-(3-{4-[2-tert-Butyl-6-(trifluoromethyl)pyrimidin-4-yl]piperazin-1-yl}propyl)-2H-1,4-benzoxazin-3(4H)-one] | 29 | 12.1 nM
CCCc1cc(N2CCN(CCCCN3C(=O)CCCc4c(O)cccc43)CC2)nc(C(C)(C)C)n1 [Example 56, 4-(2-tert-butyl-6-propyl-pyrimidin-4-yl)-1-[4-(6-hydroxy-2-oxo-2,3,4,5-tetrahydro-benzo[b]azepin-1-yl)butyl]piperazine] | 26 | 0.69 nM
CC(C)(C)c1nc(N2CCN(CCCN3C(=O)CCc4ccccc43)CC2)cc(C(F)(F)F)n1.Cl [Example 1, 1-[2-tert-Butyl-6-(trifluoromethyl)pyrimidin-4-yl]-4-[3-(2-oxo-3,4-dihydroquinolin-1(2H)-yl)propyl]piperazin-4-ium chloride] | 37 | 3.43 nM
CC(C)(C)c1nc(N2CCN(CCCCN3C(=O)CCC4=C3CCCC4=O)CC2)cc(C(F)(F)F)n1 [Example 45, 1-{4-[4-(2-tert-Butyl-6-trifluoromethyl-pyrimidin-4-yl)piperazin-1-yl]butyl}-4,6,7,8-tetrahydro-1H,3H-quinoline-2,5-dione] | 41 | 4.68 nM
CCCc1cc(N2CCN(CCCCN3C(=O)CCc4ccccc43)CC2)nc(C(C)(C)C)n1 [Example 37, 1-{4-[4-(2-tert-Butyl-6-propylpyrimidin-4-yl)piperazin-1-yl]butyl}-3,4-dihydroquinolin-2(1H)-one] | 38 | 1.59 nM
CC(C)(C)c1nc(N2CCN(C/C=C/CN3C(=O)CCc4ccccc43)CC2)cc(C(F)(F)F)n1 [Example 10, 1-((2E)-4-{4-[2-tert-Butyl-6-(trifluoromethyl)pyrimidin-4-yl]piperazin-1-yl}but-2-enyl)-3,4-dihydroquinolin-2(1H)-one] |  | 9.2 nM
CCCc1cc(N2CCN(CCCCN3C(=O)CCCc4c(OC)cccc43)CC2)nc(C(C)(C)C)n1 [Example 54, 1-{4-[4-(2-tert-Butyl-6-propyl-pyrimidin-4-yl)piperazin-1-yl]butyl}-6-methoxy-1,3,4,5-tetrahydro-benzo[b]azepin-2-one] | 25 | 2.25 nM
CCCc1cc(N2CCN(CCCCN3C(=O)CCC4=C3CCCC4=O)CC2)nc(C(C)(C)C)n1 [Example 44, 1-{4-[4-(2-tert-Butyl-6-propyl-pyrimidin-4-yl)piperazin-1-yl]butyl}-4,6,7,8-tetrahydro-1H,3H-quinoline-2,5-dione] | 29 | 1.54 nM
